Reference: patent US9290453B2 (Merck Sharp & Dohme Corp., priority 2010, dated 2016)

Target: T1, hCRTH2 (Homo sapiens, UniProt Q9Y5Y4)
T1 construct: expressed in transfected cells; host or cells: HEK (human embryonic kidney) cells expressing hCRTH2
T1 sequence (Q9Y5Y4 1-395): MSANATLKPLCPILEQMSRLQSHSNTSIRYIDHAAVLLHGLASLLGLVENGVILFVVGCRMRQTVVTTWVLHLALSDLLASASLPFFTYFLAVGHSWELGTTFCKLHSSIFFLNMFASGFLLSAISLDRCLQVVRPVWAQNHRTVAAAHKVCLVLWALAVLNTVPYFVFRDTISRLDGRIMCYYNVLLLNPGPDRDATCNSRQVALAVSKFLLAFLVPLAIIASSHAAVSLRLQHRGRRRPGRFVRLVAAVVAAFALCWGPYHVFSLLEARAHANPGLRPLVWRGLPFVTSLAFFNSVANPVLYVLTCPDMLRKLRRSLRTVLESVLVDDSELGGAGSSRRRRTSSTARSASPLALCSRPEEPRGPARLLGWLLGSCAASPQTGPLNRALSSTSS
Assay: Radioligand Binding Assay B (scintillation proximity assay, [3H]-PGD2, HEK-hCRTH2 membranes)
Settings: Table B, Radioligand Binding Assay B (SPA), rated A-D
Description: Radioligand binding also was performed using scintillation proximity assay (SPA) technology in a similar way as described above in Radioligand Binding Assay A with minor modification. Assays were done at room temperature in 10 mM HEPES pH 7.4, 1 mM EDTA containing 2 mM MnCl2 and 16 nM [^3H]-PGD2 (PerkinElmer, Waltham, Mass.) (164 Ci mmol^−1), in a final volume of 0.05 mL. Competing ligands were diluted in dimethylsulfoxide (Me2SO) and added using very low volumes (50 nL). The reaction was initiated by the addition of a mixture of 3.52 μg of membrane protein prepared from a human embryonic kidney (HEK)-hCRTH2 cell line adhered to 140 ug of wheatgerm agglutinin SPA beads (PerkinElmer). Total and non-specific binding were determined in the absence and the presence of 10 μM of a CRTH2 antagonist, respectively. The reaction was routinely conducted for 60 min at room temperature followed by centrifugation for 5 minutes at 1000 RPM. The radioactivity was measured with a TopCountNXT (PerkinElmer). Results determined using the SPA-based assay were similar to those from the filtration binding assay.

Ki | SMILES
0.0021 to 0.02 µM | Cc1ccc(N2CCN(C(=O)c3ccc4nc(-c5ccc(Cl)cc5)c(CCCCC(=O)O)cc4c3)CC2)cc1 [Compound 5BT, 5-(2-(4-chlorophenyl)-6-(4-(p-tolyl)piperazine-1-carbonyl)quinolin-3-yl)pentanoic acid]
0.0021 to 0.02 µM | O=C(O)CCCCc1cc2cc(C(=O)N3CCN(c4ccc(F)cc4)CC3)ccc2nc1-c1ccc(Cl)cc1 [Compound 5BU, 5-(2-(4-chlorophenyl)-6-(4-(4-fluorophenyl)piperazine-1-carbonyl)quinolin-3-yl)pentanoic acid]
0.0021 to 0.02 µM | CC1(C)CCC(NC(=O)c2ccc3nc(-c4ccc(Cl)cc4)c(CCCCC(=O)O)cc3c2)c2ccccc21 (stereo not shown) [Compound 5Bi, 5-(2-(4-chlorophenyl)-6-((4,4-dimethyl-1,2,3,4-tetrahydronaphthalen-1-yl)carbamoyl)quinolin-3-yl)pentanoic acid]
0.0021 to 0.02 µM | O=C(O)CCCCc1cc2cc(C(=O)N3CCC4(CC3)OCc3ccccc34)ccc2nc1-c1ccc(Cl)cc1 [Compound 5Bo, 5-(2-(4-chlorophenyl)-6-(3H-spiro[isobenzofuran-1,4′-piperidin]-1′-ylcarbonyl)quinolin-3-yl)pentanoic acid]
